This passage reports IC50 and PC transfer inhibited results from patent US6492365B1, “Microsomal triglyceride transfer protein” (Bristol-Myers Squibb Company, priority 1992, dated 2002).

In assay [1] the test system is TG secretion from HepG2 cells. Kind of assay: TG secretion from HepG2 cells (3H-glycerol labelling, extraction, TLC). Conditions: Homo sapiens, 1.25 μM-20 μM, 3H-glycerol labelling for two hours, read-out: IC50 for inhibition of TG secretion. Format: cell-based. As to the method:
HepG2 cells were treated with Compound A at the indicated doses for […], the last two hours of which were in the presence of 5 μCi/mL 3H-glycerol. The concentration of radiolabelled triglycerides in the cell culture media was measured by quantitative extraction, followed by thin layer chromatography analysis and normalization to total cell protein. The data shown are expressed as a percentage of the control (DMSO only).
HepG2 cells were subcultured into 6-well dishes and allowed to come to confluency at least 24 hours before drug treatment. Prior to addition of the drug, culture media were removed, cells washed once with PBS, and 1 mL of fresh medium (RPMI 1640+10% FBS) was added quatitatively. […]
Total lipids were extracted from the media and analyzed as follows. […] Raw data was normalized to cell protein and expressed as percent of DMSO control.
HepG2 cells were treated with doses of compound A ranging from 1.25 μM-20 μM under conditions identical to those utilized for the apoB, apoAl and HSA secretion experiment. The intracellular pool of TG was radiolabelled for two hours with 3H-glycerol in the presence of vehicle or varying doses of compound A. The accumulation of radiolabelled TG in the medium was measured by quantitative extraction, followed by thin layer chromatography analysis and normalization to total cell protein. […]

The target of assay [2] is T1, bovine MTP (Bos taurus, UniProt P55156).
T1 construct: with about 50-200 ng purified MTP in the well of a 96-well plate; from tissue; host or cells: bovine liver
T1 sequence (P55156 12-887): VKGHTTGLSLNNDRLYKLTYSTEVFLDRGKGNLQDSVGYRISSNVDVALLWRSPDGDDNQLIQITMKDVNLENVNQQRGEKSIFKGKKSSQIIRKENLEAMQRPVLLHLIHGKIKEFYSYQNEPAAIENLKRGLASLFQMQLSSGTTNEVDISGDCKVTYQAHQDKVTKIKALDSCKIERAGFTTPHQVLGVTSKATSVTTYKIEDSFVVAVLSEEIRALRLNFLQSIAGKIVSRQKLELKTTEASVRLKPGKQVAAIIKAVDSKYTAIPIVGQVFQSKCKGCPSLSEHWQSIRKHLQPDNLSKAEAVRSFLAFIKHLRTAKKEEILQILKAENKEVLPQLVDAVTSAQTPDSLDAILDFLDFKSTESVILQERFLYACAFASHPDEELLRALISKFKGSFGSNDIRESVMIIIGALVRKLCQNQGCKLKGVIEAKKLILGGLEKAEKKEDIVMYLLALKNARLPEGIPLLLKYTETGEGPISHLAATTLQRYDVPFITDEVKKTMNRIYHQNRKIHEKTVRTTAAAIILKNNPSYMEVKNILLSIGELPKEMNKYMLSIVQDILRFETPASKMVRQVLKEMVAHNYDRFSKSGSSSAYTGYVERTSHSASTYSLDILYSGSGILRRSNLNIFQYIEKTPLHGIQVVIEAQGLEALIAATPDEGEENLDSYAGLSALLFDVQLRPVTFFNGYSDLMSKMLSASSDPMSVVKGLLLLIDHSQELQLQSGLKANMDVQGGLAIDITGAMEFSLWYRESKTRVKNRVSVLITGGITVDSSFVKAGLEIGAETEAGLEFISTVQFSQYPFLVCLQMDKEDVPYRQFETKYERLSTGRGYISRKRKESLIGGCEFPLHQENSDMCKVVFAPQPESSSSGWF
T1 sequence (P05307 21-510 partner): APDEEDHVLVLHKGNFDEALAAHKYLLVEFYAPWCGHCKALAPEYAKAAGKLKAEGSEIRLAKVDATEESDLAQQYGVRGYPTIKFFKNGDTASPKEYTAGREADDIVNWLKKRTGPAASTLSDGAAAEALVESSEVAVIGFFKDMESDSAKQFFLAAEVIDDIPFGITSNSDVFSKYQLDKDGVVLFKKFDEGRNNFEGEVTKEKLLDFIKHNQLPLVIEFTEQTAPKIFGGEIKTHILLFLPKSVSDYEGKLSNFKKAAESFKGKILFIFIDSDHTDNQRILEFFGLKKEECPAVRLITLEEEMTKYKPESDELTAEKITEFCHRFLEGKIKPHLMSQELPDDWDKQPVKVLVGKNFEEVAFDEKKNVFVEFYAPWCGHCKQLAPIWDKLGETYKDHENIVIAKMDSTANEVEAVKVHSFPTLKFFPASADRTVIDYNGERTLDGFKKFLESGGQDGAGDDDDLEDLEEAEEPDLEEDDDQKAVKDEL
The experiment in a line: MTP-catalyzed transport of 14C-PC from donor SUV to acceptor SUV. Format: biochemical. As to conditions: at concentrations of inhibitor which decreased TG and CE transfer more than 80%. As to the method:
To measure the effect of compound A on bovine MTP-catalyzed transport of CE or PC between membranes, the lipid transfer assay which measures TG transfer between SUV was modified. The composition of the donor vesicles was the same, except 0.25 mol% ^14C-CE or ^14C-PC replaced the labeled TG. The composition of the acceptor vesicles were the same, except labeled PC and unlabeled TG were not included. Following precipitation of donor vesicles, the percentage of lipid transfer was calculated by comparing the ^14C-CE or -PC in the acceptor vesicles in the supernatant following a transfer reaction to the total ^14C-CE or -PC in the assay. The labeled lipid in the supernatant in the absence of MTP was subtracted from the labeled lipid in the presence MTP to calculate the MTP-catalyzed lipid transfer from donor SUV to acceptor SUV. The remainder of the assay was essentially as described previously.

pIC50: −log10 of the molar value. Counter-ions that a name gives are not always drawn.

For `O=C1c2ccccc2CN1C1CCN(CCC(c2ccccc2)c2ccccc2)CC1` [compound A, 2-[1-(3,3-diphenylpropyl)-4-piperdinyl]-2,3-dihydro-3-oxo-1H-isoindole hydrochloride], the pIC50 in assay [1] was approximately 5.70. The PC transfer inhibited entry in assay [2] is reported as “Approximately 40%”.
